Legend:
[1] = tested on: SARS-CoV-2 strains JPN/TY/WK-521 and NCGM-nCoV-05-2N; assay: microbe, parasite or virus in culture; format: cell-based; details: for IC50: Severe acute respiratory syndrome coronavirus 2, Vero C1008, read-out: IC50 against SARS-CoV-2
[2] = tested on: SARS-CoV-2; format: cell-based

Structure (SMILES)	reasonable effects against SARS-CoV-2 in the assays [1]	IC50 [1] [µM]	also measured
N=C(N)c1ccc2cc(OC(=O)c3ccc(N=C(N)N)cc3)ccc2c1 [nafamostat]	none	–	–
CC(=O)Oc1ccccc1C(=O)Nc1ncc([N+](=O)[O-])s1 [nitazoxanide]	none	–	–
C=CCn1ccc2c(C(=O)Oc3cncc(Cl)c3)cccc21 [GRL-0820S]	–	15 ± 18	blocking of infectivity, replication and cytopathic effect of SARS-CoV-2 [2]: significantly blocked the infectivity and replication; viral breakthrough [2]: viral breakthrough occurred
NC(=O)c1nc(F)c[nH]c1=O [favipiravir]	none	–	–
CCC(CC)COC(=O)[C@H](C)N[P@](=O)(OC[C@H]1O[C@@](C#N)(c2ccc3c(N)ncnn23)[C@H](O)[C@@H]1O)Oc1ccccc1 [remdesivir]	–	2.6 ± 0.7	–
CCN(CCO)CCCC(C)Nc1ccnc2cc(Cl)ccc12 (centres unmarked) [hydroxychloroquine]	none	–	–
NC(=O)c1ncn([C@@H]2O[C@H](CO)[C@@H](O)[C@H]2O)n1 [ribavirin]	none	–	–
O=C(Oc1cncc(Cl)c1)c1cccc2[nH]ccc12 [GRL-0920S]	–	2.8 ± 0.3	block of infectivity and cytopathic effect of SARS-CoV-2 (FIG. 1) [2]: virtually completely block the infectivity and cytopathic effect; blocking of infectivity, replication and cytopathic effect of SARS-CoV-2 [2]: completely blocked the infectivity, replication, and cytopathic effect
Cc1c(O)cccc1C(=O)N[C@@H](CSc1ccccc1)[C@H](O)CN1C[C@H]2CCCC[C@H]2C[C@H]1C(=O)NC(C)(C)C [nelfinavir]	none	–	–
Cc1cccc(C)c1OCC(=O)N[C@@H](Cc1ccccc1)[C@@H](O)C[C@H](Cc1ccccc1)NC(=O)[C@H](C(C)C)N1CCCNC1=O [lopinavir]	none	–	–
